Source: ChEMBL document CHEMBL5723582, “Data for DCP probe T-10430” (2024)

Key:
[1] = molecular target: Melanocortin receptor 3 (Homo sapiens) (UniProt P41968); experiment: RLU of MC3R at 1.0 µM in the […] PRESTO-Tango GPCRome screen; conditions: Compound concentration 1.0 uM
[2] = molecular target: B1 bradykinin receptor (Homo sapiens) (UniProt P46663); experiment: RLU of BDKRB1 at 1.0 µM in the […] PRESTO-Tango GPCRome screen; conditions: Compound concentration 1.0 uM
[3] = molecular target: Proteinase-activated receptor 4 (Homo sapiens) (UniProt Q96RI0); experiment: RLU of F2RL3 at 1.0 µM in the […] PRESTO-Tango GPCRome screen; conditions: Compound concentration 1.0 uM
[4] = molecular target: Vasoactive intestinal polypeptide receptor 1 (Homo sapiens) (UniProt P32241); experiment: RLU of VIPR1 at 1.0 µM in the […] PRESTO-Tango GPCRome screen; conditions: Compound concentration 1.0 uM
[5] = molecular target: Sphingosine 1-phosphate receptor 2 (Homo sapiens) (UniProt O95136); experiment: RLU of S1PR2 at 1.0 µM in the […] PRESTO-Tango GPCRome screen; conditions: Compound concentration 1.0 uM
[6] = molecular target: 5-hydroxytryptamine receptor 6 (Homo sapiens) (UniProt P50406); experiment: RLU of HTR6 at 1.0 µM in the […] PRESTO-Tango GPCRome screen; conditions: Compound concentration 1.0 uM
[7] = molecular target: Type-1 angiotensin II receptor (Homo sapiens) (UniProt P30556); experiment: RLU of AGTR1 at 1.0 µM in the […] PRESTO-Tango GPCRome screen; conditions: Compound concentration 1.0 uM
[8] = molecular target: Prostaglandin F2-alpha receptor (Homo sapiens) (UniProt P43088); experiment: RLU of PTGFR at 1.0 µM in the […] PRESTO-Tango GPCRome screen; conditions: Compound concentration 1.0 uM
[9] = molecular target: Somatostatin receptor type 2 (Homo sapiens) (UniProt P30874); experiment: RLU of SSTR2 at 1.0 µM in the […] PRESTO-Tango GPCRome screen; conditions: Compound concentration 1.0 uM
[10] = molecular target: Neuropeptide Y receptor type 5 (Homo sapiens) (UniProt Q15761); experiment: RLU of NPY5R at 1.0 µM in the […] PRESTO-Tango GPCRome screen; conditions: Compound concentration 1.0 uM
[11] = molecular target: Gastric inhibitory polypeptide receptor (Homo sapiens) (UniProt P48546); experiment: RLU of GIPR at 1.0 µM in the […] PRESTO-Tango GPCRome screen; conditions: Compound concentration 1.0 uM
[12] = molecular target: Gonadotropin-releasing hormone receptor (Homo sapiens) (UniProt P30968); experiment: RLU of GNRHR at 1.0 µM in the […] PRESTO-Tango GPCRome screen; conditions: Compound concentration 1.0 uM
[13] = molecular target: G-protein coupled receptor 68 (Homo sapiens) (UniProt Q15743); experiment: RLU of GPR68 at 1.0 µM in the […] PRESTO-Tango GPCRome screen; conditions: Compound concentration 1.0 uM
[14] = molecular target: C-X-C chemokine receptor type 6 (Homo sapiens) (UniProt O00574); experiment: RLU of CXCR6 at 1.0 µM in the […] PRESTO-Tango GPCRome screen; conditions: Compound concentration 1.0 uM
[15] = molecular target: Metabotropic glutamate receptor 7 (Homo sapiens) (UniProt Q14831); experiment: RLU of GRM7 at 1.0 µM in the Aequorin PRESTO-Tango GPCRome screen; conditions: Compound concentration 1.0 uM
[16] = molecular target: Growth hormone-releasing hormone receptor (Homo sapiens) (UniProt Q02643); experiment: RLU of GHRHR at 1.0 µM in the […] PRESTO-Tango GPCRome screen; conditions: Compound concentration 1.0 uM
[17] = molecular target: Cholecystokinin receptor type A (Homo sapiens) (UniProt P32238); experiment: RLU of CCKAR at 1.0 µM in the […] PRESTO-Tango GPCRome screen; conditions: Compound concentration 1.0 uM
[18] = molecular target: Neuromedin-K receptor (Homo sapiens) (UniProt P29371); experiment: RLU of TACR3 at 1.0 µM in the […] PRESTO-Tango GPCRome screen; conditions: Compound concentration 1.0 uM
[19] = molecular target: Trace amine-associated receptor 1 (Homo sapiens) (UniProt Q96RJ0); experiment: RLU of TA1 at 1.0 µM in the […] PRESTO-Tango GPCRome screen; conditions: Compound concentration 1.0 uM
[20] = molecular target: Adenosine receptor A2b (Homo sapiens) (UniProt P29275); experiment: RLU of ADORA2B at 1.0 µM in the […] PRESTO-Tango GPCRome screen; conditions: Compound concentration 1.0 uM
[21] = molecular target: G-protein coupled receptor 143 (Homo sapiens) (UniProt P51810); experiment: RLU of GPR143 at 1.0 µM in the […] PRESTO-Tango GPCRome screen; conditions: Compound concentration 1.0 uM
[22] = molecular target: Glucose-dependent insulinotropic receptor (Homo sapiens) (UniProt Q8TDV5); experiment: RLU of GPR119 at 1.0 µM in the […] PRESTO-Tango GPCRome screen; conditions: Compound concentration 1.0 uM
[23] = molecular target: Leukotriene B4 receptor 1 (Homo sapiens, UniProt Q15722); experiment: IP-One assay (LTB4R), agonist mode at up to 50 µM; format: functional; design: compound concentration < 50 uM
[24] = molecular target: Adenosine receptor A1 (Homo sapiens) (UniProt P30542); experiment: RLU of ADORA1 at 1.0 µM in the […] PRESTO-Tango GPCRome screen; conditions: Compound concentration 1.0 uM
[25] = molecular target: Neuropeptide FF receptor 1 (Homo sapiens) (UniProt Q9GZQ6); experiment: RLU of NPFF1 at 1.0 µM in the […] PRESTO-Tango GPCRome screen; conditions: Compound concentration 1.0 uM
[26] = molecular target: Melanocyte-stimulating hormone receptor (Homo sapiens) (UniProt Q01726); experiment: RLU of MC1R at 1.0 µM in the […] PRESTO-Tango GPCRome screen; conditions: Compound concentration 1.0 uM
[27] = molecular target: Probable G-protein coupled receptor 63 (Homo sapiens) (UniProt Q9BZJ6); experiment: RLU of GPR63 at 1.0 µM in the […] PRESTO-Tango GPCRome screen; conditions: Compound concentration 1.0 uM
[28] = molecular target: Adhesion G protein-coupled receptor A1 (Homo sapiens) (UniProt Q86SQ6); experiment: RLU of GPR123 at 1.0 µM in the […] PRESTO-Tango GPCRome screen; conditions: Compound concentration 1.0 uM
[29] = molecular target: Adhesion G-protein coupled receptor G2 (Homo sapiens) (UniProt Q8IZP9); experiment: RLU of GPR64 at 1.0 µM in the […] PRESTO-Tango GPCRome screen; conditions: Compound concentration 1.0 uM
[30] = molecular target: 5-hydroxytryptamine receptor 1D (Homo sapiens) (UniProt P28221); experiment: RLU of HTR1D at 1.0 µM in the […] PRESTO-Tango GPCRome screen; conditions: Compound concentration 1.0 uM
[31] = molecular target: P2Y purinoceptor 12 (Homo sapiens) (UniProt Q9H244); experiment: RLU of P2RY12 at 1.0 µM in the […] PRESTO-Tango GPCRome screen; conditions: Compound concentration 1.0 uM
[32] = molecular target: Trace amine-associated receptor 9 (Homo sapiens) (UniProt Q96RI9); experiment: RLU of TAAR9 at 1.0 µM in the […] PRESTO-Tango GPCRome screen; conditions: Compound concentration 1.0 uM
[33] = molecular target: G-protein coupled receptor 161 (Homo sapiens) (UniProt Q8N6U8); experiment: RLU of GPR161 at 1.0 µM in the […] PRESTO-Tango GPCRome screen; conditions: Compound concentration 1.0 uM
[34] = molecular target: Mas-related G-protein coupled receptor member E (Homo sapiens) (UniProt Q86SM8); experiment: RLU of MRGPRE at 1.0 µM in the […] PRESTO-Tango GPCRome screen; conditions: Compound concentration 1.0 uM
[35] = molecular target: G-protein coupled receptor family C group 5 member D (Homo sapiens) (UniProt Q9NZD1); experiment: RLU of GPRC5D at 1.0 µM in the […] PRESTO-Tango GPCRome screen; conditions: Compound concentration 1.0 uM
Sequence of G-protein coupled receptor family C group 5 member D (Homo sapiens) (Q9NZD1 whole entry): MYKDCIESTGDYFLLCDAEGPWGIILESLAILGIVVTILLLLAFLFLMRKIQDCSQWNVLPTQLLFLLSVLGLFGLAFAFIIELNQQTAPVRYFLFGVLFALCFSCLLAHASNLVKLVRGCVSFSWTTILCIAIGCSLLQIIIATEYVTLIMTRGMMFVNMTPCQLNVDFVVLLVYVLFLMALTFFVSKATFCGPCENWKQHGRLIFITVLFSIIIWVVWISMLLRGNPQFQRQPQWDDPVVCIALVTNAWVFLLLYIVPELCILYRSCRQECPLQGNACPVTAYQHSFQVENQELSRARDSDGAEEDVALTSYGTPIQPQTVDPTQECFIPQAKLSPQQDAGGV

Sequence of Melanocortin receptor 3 (Homo sapiens) (P41968 whole entry): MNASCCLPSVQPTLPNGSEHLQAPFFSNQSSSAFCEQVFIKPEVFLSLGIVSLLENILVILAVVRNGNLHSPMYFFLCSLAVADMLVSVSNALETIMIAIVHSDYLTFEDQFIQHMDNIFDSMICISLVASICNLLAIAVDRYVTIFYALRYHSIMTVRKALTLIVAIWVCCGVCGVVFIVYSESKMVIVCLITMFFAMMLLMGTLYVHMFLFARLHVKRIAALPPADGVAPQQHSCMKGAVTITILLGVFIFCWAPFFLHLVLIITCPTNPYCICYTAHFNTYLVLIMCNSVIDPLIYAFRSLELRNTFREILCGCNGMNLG
Sequence of Adhesion G-protein coupled receptor G2 (Homo sapiens) (Q8IZP9 whole entry): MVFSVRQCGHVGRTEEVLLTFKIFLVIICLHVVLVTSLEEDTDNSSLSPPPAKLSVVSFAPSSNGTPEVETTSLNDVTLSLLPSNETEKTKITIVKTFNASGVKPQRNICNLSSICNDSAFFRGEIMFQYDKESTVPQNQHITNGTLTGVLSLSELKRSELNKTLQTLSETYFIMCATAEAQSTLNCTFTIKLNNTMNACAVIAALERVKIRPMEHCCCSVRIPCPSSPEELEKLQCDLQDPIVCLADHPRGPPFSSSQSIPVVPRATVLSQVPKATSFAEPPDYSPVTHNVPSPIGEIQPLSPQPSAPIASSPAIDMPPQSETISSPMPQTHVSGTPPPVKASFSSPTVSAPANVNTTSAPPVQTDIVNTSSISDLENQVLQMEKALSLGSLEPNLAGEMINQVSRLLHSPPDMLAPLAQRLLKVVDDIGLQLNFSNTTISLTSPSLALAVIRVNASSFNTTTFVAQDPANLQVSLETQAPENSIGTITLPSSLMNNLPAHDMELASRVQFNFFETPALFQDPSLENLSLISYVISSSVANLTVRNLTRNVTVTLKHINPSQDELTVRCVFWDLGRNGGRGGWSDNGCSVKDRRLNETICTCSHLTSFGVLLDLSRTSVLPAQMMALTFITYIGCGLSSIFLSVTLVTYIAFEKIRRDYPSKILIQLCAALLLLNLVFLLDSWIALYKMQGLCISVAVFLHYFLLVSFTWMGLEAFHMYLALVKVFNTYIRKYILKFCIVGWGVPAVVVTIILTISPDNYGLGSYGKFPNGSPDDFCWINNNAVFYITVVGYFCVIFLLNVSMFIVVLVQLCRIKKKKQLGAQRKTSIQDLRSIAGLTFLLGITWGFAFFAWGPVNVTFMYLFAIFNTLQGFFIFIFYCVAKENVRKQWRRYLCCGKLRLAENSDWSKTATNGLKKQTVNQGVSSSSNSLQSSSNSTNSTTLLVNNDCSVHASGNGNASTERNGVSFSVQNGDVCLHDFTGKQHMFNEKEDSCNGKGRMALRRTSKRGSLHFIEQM
Sequence of C-X-C chemokine receptor type 6 (Homo sapiens) (O00574 whole entry, looked up): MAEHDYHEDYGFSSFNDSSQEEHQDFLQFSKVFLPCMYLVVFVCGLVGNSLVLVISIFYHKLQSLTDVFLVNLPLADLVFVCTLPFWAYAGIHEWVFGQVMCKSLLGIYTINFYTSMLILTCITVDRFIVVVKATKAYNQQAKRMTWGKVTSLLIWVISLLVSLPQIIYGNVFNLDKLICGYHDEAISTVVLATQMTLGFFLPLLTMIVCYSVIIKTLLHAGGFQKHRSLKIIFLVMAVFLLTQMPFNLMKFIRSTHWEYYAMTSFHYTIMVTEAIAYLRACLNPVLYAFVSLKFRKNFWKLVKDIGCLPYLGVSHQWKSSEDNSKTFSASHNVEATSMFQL
Sequence of 5-hydroxytryptamine receptor 6 (Homo sapiens) (P50406 whole entry): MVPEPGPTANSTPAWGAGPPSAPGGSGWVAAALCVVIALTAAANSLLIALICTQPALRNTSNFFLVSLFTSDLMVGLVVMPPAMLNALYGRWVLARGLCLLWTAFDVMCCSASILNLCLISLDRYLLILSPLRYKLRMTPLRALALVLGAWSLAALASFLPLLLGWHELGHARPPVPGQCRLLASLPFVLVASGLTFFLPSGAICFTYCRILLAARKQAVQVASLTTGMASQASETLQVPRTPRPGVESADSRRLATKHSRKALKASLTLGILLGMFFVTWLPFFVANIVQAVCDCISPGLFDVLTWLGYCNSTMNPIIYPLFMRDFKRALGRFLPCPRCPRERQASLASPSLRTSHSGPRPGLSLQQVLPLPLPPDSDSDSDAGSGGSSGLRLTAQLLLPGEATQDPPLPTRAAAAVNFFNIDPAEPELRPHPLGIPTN
Sequence of Neuropeptide FF receptor 1 (Homo sapiens) (Q9GZQ6 whole entry): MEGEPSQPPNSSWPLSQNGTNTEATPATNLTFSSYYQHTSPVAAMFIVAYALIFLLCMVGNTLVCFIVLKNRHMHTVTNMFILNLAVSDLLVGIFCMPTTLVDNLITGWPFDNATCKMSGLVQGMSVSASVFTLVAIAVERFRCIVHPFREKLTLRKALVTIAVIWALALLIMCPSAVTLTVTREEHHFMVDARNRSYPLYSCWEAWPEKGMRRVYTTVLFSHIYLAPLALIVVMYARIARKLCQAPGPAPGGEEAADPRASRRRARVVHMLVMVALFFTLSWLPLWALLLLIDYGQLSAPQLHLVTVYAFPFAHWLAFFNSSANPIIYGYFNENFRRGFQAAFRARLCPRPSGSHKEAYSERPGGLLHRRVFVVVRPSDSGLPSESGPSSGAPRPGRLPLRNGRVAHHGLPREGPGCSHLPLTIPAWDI
Sequence of B1 bradykinin receptor (Homo sapiens) (P46663 whole entry): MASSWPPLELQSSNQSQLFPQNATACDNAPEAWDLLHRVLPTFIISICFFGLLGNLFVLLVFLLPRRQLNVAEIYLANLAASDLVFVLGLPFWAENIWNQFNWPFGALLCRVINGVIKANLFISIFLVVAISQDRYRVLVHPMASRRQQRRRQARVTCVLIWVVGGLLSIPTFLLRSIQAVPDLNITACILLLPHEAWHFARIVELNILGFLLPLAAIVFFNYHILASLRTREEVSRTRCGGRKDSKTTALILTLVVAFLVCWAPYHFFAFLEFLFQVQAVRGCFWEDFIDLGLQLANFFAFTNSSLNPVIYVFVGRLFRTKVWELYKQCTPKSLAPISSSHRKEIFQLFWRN
Sequence of Melanocyte-stimulating hormone receptor (Homo sapiens) (Q01726 whole entry, looked up): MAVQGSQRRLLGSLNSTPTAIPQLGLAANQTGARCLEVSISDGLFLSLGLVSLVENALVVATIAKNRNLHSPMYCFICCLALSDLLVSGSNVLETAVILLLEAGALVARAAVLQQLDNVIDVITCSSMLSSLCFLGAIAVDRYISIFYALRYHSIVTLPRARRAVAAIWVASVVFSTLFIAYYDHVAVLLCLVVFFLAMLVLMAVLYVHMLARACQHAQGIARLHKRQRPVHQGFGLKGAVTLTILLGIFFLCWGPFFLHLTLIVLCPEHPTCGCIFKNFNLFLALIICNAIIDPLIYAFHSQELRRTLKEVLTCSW
Sequence of Somatostatin receptor type 2 (Homo sapiens) (P30874 whole entry): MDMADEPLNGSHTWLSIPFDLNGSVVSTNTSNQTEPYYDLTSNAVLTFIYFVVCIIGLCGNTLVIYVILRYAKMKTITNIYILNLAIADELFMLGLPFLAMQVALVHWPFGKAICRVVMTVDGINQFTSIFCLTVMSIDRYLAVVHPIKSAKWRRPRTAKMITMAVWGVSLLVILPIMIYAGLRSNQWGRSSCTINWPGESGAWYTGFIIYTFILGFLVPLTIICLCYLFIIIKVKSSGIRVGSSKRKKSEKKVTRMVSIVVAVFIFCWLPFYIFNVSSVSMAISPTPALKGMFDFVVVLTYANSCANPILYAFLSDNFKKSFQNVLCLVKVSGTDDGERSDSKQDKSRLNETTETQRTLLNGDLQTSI
Sequence of Mas-related G-protein coupled receptor member E (Homo sapiens) (Q86SM8 whole entry): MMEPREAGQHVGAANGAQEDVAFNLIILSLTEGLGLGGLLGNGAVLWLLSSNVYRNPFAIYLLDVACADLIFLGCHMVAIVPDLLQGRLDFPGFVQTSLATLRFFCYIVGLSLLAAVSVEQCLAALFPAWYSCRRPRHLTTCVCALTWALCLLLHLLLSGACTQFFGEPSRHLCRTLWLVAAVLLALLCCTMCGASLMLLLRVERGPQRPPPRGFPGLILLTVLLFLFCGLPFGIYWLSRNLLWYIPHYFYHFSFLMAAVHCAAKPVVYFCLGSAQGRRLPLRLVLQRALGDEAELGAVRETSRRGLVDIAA
Sequence of Prostaglandin F2-alpha receptor (Homo sapiens) (P43088 whole entry): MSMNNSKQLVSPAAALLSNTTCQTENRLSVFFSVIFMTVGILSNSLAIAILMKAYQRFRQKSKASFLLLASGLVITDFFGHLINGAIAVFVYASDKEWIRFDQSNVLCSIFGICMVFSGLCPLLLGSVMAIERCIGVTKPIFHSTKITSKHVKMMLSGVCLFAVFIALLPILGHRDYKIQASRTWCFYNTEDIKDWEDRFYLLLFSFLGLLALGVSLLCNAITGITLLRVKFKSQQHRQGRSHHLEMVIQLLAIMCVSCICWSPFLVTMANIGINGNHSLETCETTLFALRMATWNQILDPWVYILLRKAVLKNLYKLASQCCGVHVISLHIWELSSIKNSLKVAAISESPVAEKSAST
Sequence of Glucose-dependent insulinotropic receptor (Homo sapiens) (Q8TDV5 whole entry): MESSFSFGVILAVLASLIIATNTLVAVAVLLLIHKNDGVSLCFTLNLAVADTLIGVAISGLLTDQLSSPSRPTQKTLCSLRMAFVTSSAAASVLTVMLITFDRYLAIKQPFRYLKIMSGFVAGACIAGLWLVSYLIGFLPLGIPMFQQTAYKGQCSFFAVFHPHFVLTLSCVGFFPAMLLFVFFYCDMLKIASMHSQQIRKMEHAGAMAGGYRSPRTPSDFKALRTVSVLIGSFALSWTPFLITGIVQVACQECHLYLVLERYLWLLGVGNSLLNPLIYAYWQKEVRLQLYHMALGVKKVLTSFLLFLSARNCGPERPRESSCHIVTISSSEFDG

RLU [1]: 18.8 | RLU [2]: -3310 | RLU [3]: 125 | RLU [4]: -7190 | RLU [5]: 401 | RLU [6]: 5340 | RLU [7]: 9130 | RLU [8]: -81.2 | RLU [9]: -163 | RLU [10]: -14500 | RLU [11]: -1500 | RLU [12]: -3090 | RLU [13]: -1790 | RLU [14]: 761 | RLU [15]: 6950 | RLU [16]: -1060 | RLU [17]: 2840 | RLU [18]: 550 | RLU [19]: 127 | RLU [20]: 6490 | RLU [21]: -2070 | RLU [22]: 272 | EC50 [23]: > 50 µM (not active) | RLU [24]: 6200 | RLU [25]: 4030 | RLU [26]: -1890 | RLU [27]: -87.9 | RLU [28]: 2100 | RLU [29]: 8730 | RLU [30]: -12300 | RLU [31]: -34.4 | RLU [32]: -547 | RLU [33]: -2640 | RLU [34]: -3210 | RLU [35]: 1.74
Compound: CCCCC(=O)N1CC2(C1)CN(c1ccccc1-c1nnn[nH]1)C2
